Source: patent US12350266B2, “FGFR2 inhibitors for the treatment of cholangiocarcinoma” (Janssen Pharmaceutica NV, priority 2017, dated 2025)

What was measured:
[1] = system: patients with FGFR-aberrant cholangiocarcinoma; assay: Clinical trial NCT01703481: safety; assay type: in vivo, human; settings: compared with published Part 1 results (Tabernero 2015)
Description: Eleven patients with FGFR-aberrant cholangiocarcinoma were treated at 9 mg QD (n=1, Part 3) or 10 mg intermittent (n=10, Part 4).

[2] = system: FGFR-aberrant cholangiocarcinoma
Description: Sparse samples were collected in Parts 3 and 4.

[3] = compared with published Part 1 results (Tabernero 2015)
[4] = system: advanced cholangiocarcinoma with FGFR alterations; settings: 11 subjects dosed with 8 mg qd; snapshot 20 Mar. 2018
Description: (§1) LUC2001 is an open-label, multicenter, phase 2a study including advanced cholangiocarcinoma subjects with FGFR alterations, based on FoundationOne testing, who failed at least 1 prior systemic treatment. The primary endpoint is objective response rate (ORR; by Response Evaluation Criteria in Solid Tumors (RECIST) version 1.1). The secondary endpoints are disease control rate (DCR), safety and pharmacokinetics. Disease is evaluated every 8 weeks until disease progression (PD). […] The dose of the drug may be modified, delayed, or terminated based on guidelines in the protocol.

[5] = system: advanced cholangiocarcinoma patients; assay: LUC2001 (NCT02699606) phase 2a study: safety (adverse events)
Description: as §1

[6] = 8 mg qd, most common AEs (>30%)

## COc1cc(OC)cc(N(CCNC(C)C)c2ccc3ncc(-c4cnn(C)c4)nc3c2)c1 [erdafitinib, N-(3,5-dimethoxy-phenyl)-N′-(1-methylethyl)-N-[3-(1-methyl-1H-pyrazol-4-yl)quinoxalin-6-yl]ethane-1,2-diamine]
[1]
  Safety data: consistent with those from the previously published results from Part 1 of this study
[2]; number of patients (n)
  partial responses, fusion FGFR2-BICC1: 1
  partial responses, fusion FGFR2-CCAR1: 1
[2]; number of patients among the 3 partial responses
  partial responses, patients with FGFR translocations: 2
[3]
  PK data: consistent with those from the previously published results from Part 1 of this study
[4]
  PD (disease progression), number of subjects: 2
[5]; [6]
  AE diarrhea (subjects/dosed): 4/11
  AE dry mouth (subjects/dosed): 7/11
  AE hyperphosphatemia (subjects/dosed): 8/11
  AE nail disorder (subjects/dosed): 4/11
  AE palmar-plantar erythrodysaesthesia syndrome (subjects/dosed): 4/11
  AE stomatitis (subjects/dosed): 7/11
[5]; 11 subjects, 8 mg qd
  AE leading to treatment discontinuation or death: no AE led to treatment discontinuation or death
  subjects who experienced AEs: All subjects experienced AEs
  subjects with AEs leading to drug interruption: all had AEs leading to drug interruption
[5]; patients with FGFR-aberrant advanced cholangiocarcinoma
  safety profile (conclusion): tolerable safety profile
